For series [1], the system named is aberrant crypt foci (ACF) in colon. As to the kind of experiment: Azoxymethane-induced aberrant crypt foci model. As to conditions: for Mean ACF/colon (+ SE): free base, 5 weeks. It is filed as in vivo, rat. The protocol: The growth inhibition IC50 value obtained for Compound I was 0.7 μM in the SW-480 cell line. […] This established rodent model of azoxymethane (“AOM”)-induced carcinogenesis was used to assess the effects of Compound I (free base and salt) on colon cancer development in vivo. ACF are precursors to colonic tumors, and ACF inhibition is predictive of chemo-preventive efficacy.
In the rats in this experiment, ACF initiation was achieved by two consecutive weekly injections of the carcinogen. Compound I was administered one week prior to ACF initiation and for the duration of the experiment. ACFs were scored after 5 weeks of treatment. Compound I was administered orally to male Fisher 344 rats in the rat chow. Daily food consumption (mg/kg body weight) varied over the course of the study, and therefore Compound I dose was expressed a grams per kg of diet to provide a basis of comparison between doses. […] The experimental groups gained less weight than the controls, which was indicative of bioavailability. However, the weight differences were less than 10% and not considered to affect ACF formation.
The free base of Compound I inhibited ACF formation as measured by a reduction of crypts per colon. With the exception of the low dose group (only 0.5 g/kg diet), the differences between treatment and control groups were substantial, and statistically significant in the case of the 1.0 and 2.0 g/kg diet group.

For series [2], the system named is panel of cultured human cell lines derived from various tissue origins. Description: Growth inhibition, neutral red assay, whole panel. It is filed as cell-based. As to conditions: all cell lines of the panel, read-out: GI50 value calculated for all cell lines. The method, then:
(§1) Compound I's activity is not confined to activity against colon cancer cell lines or animal models of colon cancer. It has a broad range of anti-neoplastic effects in various neoplastic cell lines. Various types of human cancer cell lines were propagated under sterile conditions in RPMI 1640 medium with 10% fetal bovine serum, 2 mM L-glutamine and sodium bicarbonate. To determine growth inhibitory effects of Compound I, cells were seeded in 96-well plates at a density of 1000 cells per well. Twenty-four hours after plating, the cells were dosed with various concentrations of the free base of Compound I solubilized in DMSO (final concentration 0.1%). The effect of the drug on tumor cell growth was determined using the neutral red cytotoxicity assay following five days of continuous treatment. Neutral red is a dye that is selectively taken up by viable cells by an ATP-dependent transport mechanism.

The next series concerns RPMI-8226. As to the kind of experiment: Growth inhibition, neutral red assay, RPMI-8226. It is filed as cell-based. As to conditions: Homo sapiens, HCl salt. The method, then:
as §1

In the next series the test system is UISO-BCA-1. Description: Growth inhibition, neutral red assay, UISO-BCA-1. It is filed as cell-based, human. The following applies: free base, five days. The method, then:
as §1

The next series has as its system OVCAR. Description: Growth inhibition, neutral red assay, OVCAR. It is filed as cell-based. As to conditions: Homo sapiens; HCl salt. The method, then: as §1
Another series in a line: 28-day study in rats. Type of series: in vivo, rat.
Another series deals with NCI-H460. As to the kind of experiment: Growth inhibition, neutral red assay, NCI-H460. It is filed as cell-based, human. As to conditions: free base, five days. The protocol: as §1
Series [3] deals with PDE4 purified from human colon HT-29 cultured tumor cells. As to the kind of experiment: PDE4 inhibition assay. It is filed as biochemical. The following applies: HT-29 cell enzyme.
Series [4] relates to β-catenin and PKG levels in SW480 cells. Description: Western blot of β-catenin and PKG in SW480. Type of series: cell-based, human. The method, then: SW480 cells treated with exisulind as described previously are harvested from the microfuge tubes by rinsing once with ice-cold PBS. The cells are lysed by modified RIPA buffer for 15 minutes with agitation. The cell lysate is spun down in a cold room. The supernatants are transferred to fresh microcentrifuge tubes immediately after spinning. BioRad DC Protein Assay (Temecula, Calif.) is performed to determine the protein concentrations in samples. The samples are normalized for protein concentration, as described above.
50 μg of each sample is loaded to 10% SDS gel. SDS-PAGE is performed, and the proteins then are transferred to a nitrocellulose membrane. The blotted nitrocellulose membrane are blocked in freshly prepared TBST containing 5% nonfat dry milk for one hour at room temperature with constant agitation.
A goat-anti-PKG primary antibody is diluted to the recommended concentration/dilution in fresh TBST/5% nonfat dry milk. The nitrocellulose membrane is placed in the primary antibody solution and incubated one hour at room temperature with agitation. The nitrocellulose membrane is washed three times for ten minutes each with TBST. […]
This observation was made by culturing SW480 cells with either 200, 400 or 600 μM exisulind or vehicle (0.1% DMSO). […] Immuno-reactive protein can be detected by Western blot. […]

In series [5] the test system is KNRK, Kidney (ras transformed). Description: Growth inhibition, SRB assay, KNRK. Type of series: cell-based.

Where a name gives a salt, the structure may show the parent alone.

In the case of `CC1=C(CC(=O)NCc2ccccc2)c2cc(F)ccc2/C1=C\c1ccncc1` [Compound I, (Z)-5-fluoro-2-methyl-(4-pyridylidene)-3-(N-benzyl)indenylacetamide hydrochloride], the “ACF % Control” value in [1] (0.5 g/kg diet) came to 100%; in series [1] (1 g/kg diet), 75%; in [1] (1.5 g/kg diet) it was 89%; in series [1] (2.0 g/kg diet) it was 72%. Moreover, the “Mean ACF/colon (+ SE)” value was found to be 149 ± 14 in [1] (0.5 g/kg diet), 111 ± 9 in series [1] (1 g/kg diet), 132 ± 4 in series [1] (1.5 g/kg diet) and 107 ± 15 in [1] (2.0 g/kg diet). Besides, the “body weight differences versus controls” value in [1] (male Fisher 344 rats, drug in chow) was “less than 10%”. Further, the GI50 (commonly the concentration at which growth is held to half of that of the control) in series [2] is 1000 to 2000 nM; in the series on RPMI-8226 it was 1.2 µM; with UISO-BCA-1 (Homo sapiens, 120 h), 1.5 µM; in the series with OVCAR it was 1.2 µM; with NCI-H460 (Homo sapiens, NCI-H460, 120 h), 1.9 µM. The “GI90 μM, UISO-BCA-1” value in the series with UISO-BCA-1 turned out to be 4.7 µM. Also, in the series “28-day study in rats” (rats, 2000 mg/kg/day), the “organ weight data, 28-day study” value is recorded as “statistically significant increase in liver weights”. Besides, the “clinical observations, 28-day study” value in “28-day study in rats” (rats, 50, 500 and 2000 mg/kg/day) is on record as “no abnormal clinical observations”. Besides, in the series on NCI-H460, the “GI90 μM, NCI-H460” value came out at 30.0 µM.
For `CC1=C(CC(=O)O)c2cc(F)ccc2/C1=C\c1ccc(S(C)(=O)=O)cc1` [Exisulind, 5-fluoro-2-methyl-1-(p-methylsulfonylbenzylidene)-3-indenylacetic acid], the figures for the IC50 in [3] and in series [5] were 181000 nM and 240 µM, respectively. In series [4] (SW480, 200, 400 or 600 μM, 48 hours, Western blot), the “reduction of expression of β-catenin compared to control” value is 50%. In series [4] (SW480, 48 hours), the “PKG level by Western blot” value was “increase of PKG”.

These data come from US20030109418A1, “Methods for identifying compounds for inhibition of neoplastic lesions, and pharmaceutical compositions containing such compounds” (priority 1999, published 2003).
